The values below come from patent US7217730B2, “Method for the use of pyranoindole derivatives to treat infection with Hepatitis C virus” (Wyeth, priority 2002, dated 2007).

pIC50: −log10 of the molar value.

Usually pIC50 stands for −log10 of the IC50, conventionally taken in molar units.

Experiment [1] has as its target BB7 (RNA-dependent RNA polymerase hepatitis C virus protein sequence derived from HCV replicon) (Hepatitis C virus genotype 1b, UniProt Q9WMX2). Nature of the experiment: Hepatitis C polymerase inhibition, BB7 sequence. Particulars: Table 1B. The experiment is classed as biochemical.
In experiment [2] the target is T1, NS5B from the BK strain (genotype 1b) (Hepatitis C virus genotype 1b, UniProt P26663).
T1 construct: NS5B from the BK strain (genotype 1b) is expressed in E. coli as a protein in which the 21 C-terminal amino acids are replaced; made in house; host or cells: E. coli
T1 sequence (P26663 2420-2989): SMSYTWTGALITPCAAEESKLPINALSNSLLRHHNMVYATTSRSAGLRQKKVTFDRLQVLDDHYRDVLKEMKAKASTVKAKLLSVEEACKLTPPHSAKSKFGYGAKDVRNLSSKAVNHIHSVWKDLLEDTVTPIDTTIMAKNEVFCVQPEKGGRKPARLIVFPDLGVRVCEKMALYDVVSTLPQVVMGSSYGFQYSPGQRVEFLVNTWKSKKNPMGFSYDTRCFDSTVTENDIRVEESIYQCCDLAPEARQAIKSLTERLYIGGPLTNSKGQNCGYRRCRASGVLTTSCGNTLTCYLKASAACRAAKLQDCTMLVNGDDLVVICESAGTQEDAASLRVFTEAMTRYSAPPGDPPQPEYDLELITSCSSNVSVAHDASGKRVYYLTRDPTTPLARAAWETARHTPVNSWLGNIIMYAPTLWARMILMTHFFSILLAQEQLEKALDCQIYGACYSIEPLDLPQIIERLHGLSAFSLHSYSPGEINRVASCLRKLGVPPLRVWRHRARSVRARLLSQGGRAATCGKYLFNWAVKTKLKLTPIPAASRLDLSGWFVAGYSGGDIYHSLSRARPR
The experiment is described as follows: Hepatitis C polymerase inhibition, NS5B BK strain, 33P-GTP filter assay. The experiment is classed as biochemical. The note with it: Table 1B; NS5B BK strain; read-out: BK IC50. The method, boiled down:
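E. coli-expressed NS5B (BK, genotype 1b) with the 21 C-terminal residues replaced by a linker-His6 tag was preincubated with compound for 15 min at room temperature. It then extended a hairpin-primed heteropolymeric RNA (~3 nM, ~760 nt product) with α-[33P]-GTP for 2 h at 22–25° C. The reaction was stopped with EDTA, and incorporated label was counted on filters.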

BB7 (RNA-dependent RNA polymerase hepatitis C virus protein sequence derived from HCV replicon), sequence (Q9WMX2 2420-3010): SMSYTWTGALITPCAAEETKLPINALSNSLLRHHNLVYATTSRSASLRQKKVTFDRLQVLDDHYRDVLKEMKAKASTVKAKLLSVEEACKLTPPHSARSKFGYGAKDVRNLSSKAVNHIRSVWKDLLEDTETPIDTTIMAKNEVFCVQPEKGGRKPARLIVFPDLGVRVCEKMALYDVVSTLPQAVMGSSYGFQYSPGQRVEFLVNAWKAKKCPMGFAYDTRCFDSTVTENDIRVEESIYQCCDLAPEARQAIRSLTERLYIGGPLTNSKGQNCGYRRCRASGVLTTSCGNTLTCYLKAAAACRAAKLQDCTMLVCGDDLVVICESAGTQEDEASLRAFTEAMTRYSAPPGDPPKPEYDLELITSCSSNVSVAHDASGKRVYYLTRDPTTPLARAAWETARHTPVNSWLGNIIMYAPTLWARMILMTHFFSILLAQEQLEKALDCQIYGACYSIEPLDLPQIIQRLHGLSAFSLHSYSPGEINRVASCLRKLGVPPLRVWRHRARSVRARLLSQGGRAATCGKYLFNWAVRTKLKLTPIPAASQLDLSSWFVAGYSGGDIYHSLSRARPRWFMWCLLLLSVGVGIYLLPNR

As for `CCCC1(CC(=O)O)OCCc2c1[nH]c1c(C#N)ccc(C(F)(F)F)c21` (centres unmarked) [Example 276, (8-cyano-1-propyl-5-trifluoromethyl-1,3,4,9-tetrahydropyrano[3,4-b]indol-1-yl)acetic acid], the figures for the pIC50 in experiment [1] and in experiment [2] were 5.77 and 5.89, respectively.
The like results for `COCCC1(CC(=O)O)OCCc2c1[nH]c1c(Cl)ccc(C(F)(F)F)c21` (centres unmarked) [Example 265, [8-chloro-1-(2-methoxyethyl)-5-trifluoromethyl-1,3,4,9-tetrahydropyrano[3,4-b]indol-1-yl]acetic acid] were, in that order, 4.66 and 4.70.
The matching figures for `CCCC1(C(=O)O)OCCc2c1[nH]c1c(C)ccc(C#N)c21` (centres unmarked) [Example 334, (5-cyano-8-methyl-1-propyl-1,3,4,9-tetrahydropyrano[3,4-b]indol-1-yl)carboxylic acid]: 5.30 and 5.52.
In the case of `CCCOc1cc(C#N)c2c3c([nH]c2c1C)[C@@](CCC)(CC(=O)O)OCC3` [Example 360, (1R)-(5-cyano-8-methyl-7-propoxy-1-propyl-1,3,4,9-tetrahydro-pyrano[3,4-b]indol-1-yl)-acetic acid], the pIC50 in experiment [1] is 7.40; in experiment [2] it was 7.05.
The matching figures for `CCCC1(CC(=O)O)OCCc2c1[nH]c1c(C)c(OCc3ccccc3)cc(C#N)c21` (centres unmarked) [Example 368, (7-benzyloxy-5-cyano-8-methyl-1-propyl-1,3,4,9-tetrahydro-pyrano[3,4-b]indol-1-yl)-acetic acid]: 6.89 and 6.96.
The matching figures for `CCCC1(CC(=O)O)OCCc2c1[nH]c1cc(Cl)c(Cl)cc21` (centres unmarked) [Example 240, (6,7-dichloro-1-propyl-1,3,4,9-tetrahydropyrano[3,4-b]indol-1-yl)acetic acid]: 4.74 and 5.05.
The like results for `COCC1(CC(=O)O)OCCc2c1[nH]c1c(Cl)ccc(Cl)c21` (centres unmarked) [Example 246, (5,8-dichloro-1-methoxymethyl-1,3,4,9-tetrahydropyrano[3,4-b]indol-1-yl)acetic acid] were, in that order, < 4.52 and < 4.52.
As to `Cc1cc(F)c(C#N)c2c3c([nH]c12)C(CC(=O)O)(C1CCC1)OCC3` (centres unmarked) [Example 317, (5-cyano-1-cyclobutyl-6-fluoro-8-methyl-1,3,4,9-tetrahydropyrano[3,4-b]indol-1-yl)acetic acid], the pIC50 in experiment [1] is 6.05; in experiment [2], 6.22.
The like results for `CCCC1(C(=O)O)OCCc2c1[nH]c1c(Cl)ccc(C#N)c21` (centres unmarked) [Example 341, (8-chloro-5-cyano-1-propyl-1,3,4,9-tetrahydropyrano[3,4-b]indol-1-yl)carboxylic acid] were, in that order, 5.44 and 5.77.
The like results for `CCCC1(C(=O)O)OCCc2c1[nH]c1c(C)ccc(Cl)c21` (centres unmarked) [Example 330, (5-chloro-8-methyl-1-propyl-1,3,4,9-tetrahydropyrano[3,4-b]indol-1-yl)carboxylic acid] were, in that order, 5.08 and 5.80.
The like results for `CCCC1(CC(=O)O)OCCc2c1[nH]c1c(C)c(OCCCF)cc(C#N)c21` (centres unmarked) [Example 370, [5-cyano-7-(3-fluoro-propoxy)-8-methyl-1-propyl-1,3,4,9-tetrahydro-pyrano[3,4-b]indol-1-yl]acetic acid] were, in that order, 7.52 and 7.40.
Turning to `Cc1ccc(C(F)(F)F)c2c3c([nH]c12)C(CC(=O)O)(C1CCC1)OCC3` (centres unmarked) [Example 275, (1-cyclobutyl-8-methyl-5-trifluoromethyl-1,3,4,9-tetrahydropyrano[3,4-b]indol-1-yl)acetic acid], the pIC50 in experiment [1] was 5.46; in experiment [2], 5.92.
The like results for `Cc1ccc(C#N)c2c3c([nH]c12)C(CC(=O)O)(CC1CCCC1)OCC3` (centres unmarked) [Example 288, (5-cyano-1-cyclopentylmethyl-8-methyl-1,3,4,9-tetrahydropyrano[3,4-b]indol-1-yl)acetic acid] were, in that order, 4.74 and 4.66.
On to `CCCC1(CC(=O)O)OCCc2c1[nH]c1c(C(F)(F)F)ccc(C(F)(F)F)c21` (centres unmarked) [Example 271, [5,8-bis(trifluoromethyl)-1-propyl-1,3,4,9-tetrahydropyrano[3,4-b]indol-1-yl]acetic acid], for which the results for the pIC50 in experiment [1] and in experiment [2] were 5.46 and 5.57, respectively.
The like results for `N#Cc1ccc(F)c2[nH]c3c(c12)CCOC3(CC(=O)O)C1CCCC1` (centres unmarked) [Example 308, (5-cyano-1-cyclopentyl-8-fluoro-1,3,4,9-tetrahydropyrano[3,4-b]indol-1-yl)acetic acid] were, in that order, < 4.52 and < 4.52.
The like results for `CCCC1(CC(=O)O)OCCc2c1[nH]c1c(C)c(OCCC(C)(C)C)cc(C#N)c21` (centres unmarked) [Example 366, [5-cyano-7-(3,3-dimethyl-butoxy)-8-methyl-1-propy-1,3,4,9-tetrahydro-pyrano[3,4-b]indol-1-yl]-acetic acid] were, in that order, 6.26 and 5.77.
The like results for `CCCC1(CC(=O)O)OCCc2c1[nH]c1c(C)c(OC)cc(C#N)c21` (centres unmarked) [Example 363, (5-cyano-7-methoxy-8-methyl-1-propyl-1,3,4,9-tetrahydro-pyrano[3,4-b]indol-1-yl)-acetic acid] were, in that order, 6.89 and 6.44.
On to `CCCCOc1cc(C#N)c2c3c([nH]c2c1C)C(CCC)(CC(=O)O)OCC3` (centres unmarked) [Example 365, (7-butoxy-5-cyano-8-methyl-1-propyl-1,3,4,9-tetrahydro-pyrano[3,4-b]indol-1-yl)-acetic acid], for which the negative logarithm of the IC50 (pIC50) was 7.22 in experiment [1] and 7.00 in experiment [2].
Take `O=C(O)CC1(C2CCC2)OCCc2c1[nH]c1c(Cl)ccc(Cl)c21` (centres unmarked) [Example 253, (5,8-dichloro-1-cyclobutyl-1,3,4,9-tetrahydropyrano[3,4-b]indol-1-yl)acetic acid]: the negative-log IC50 (pIC50) in experiment [1] is 6.15; in experiment [2], 6.46.
The matching figures for `O=C(O)CC1(CCC(F)(F)F)OCCc2c1[nH]c1c(Cl)ccc(Cl)c21` (centres unmarked) [Example 245, [5,8-dichloro-1-(3,3,3-trifluoropropyl)-1,3,4,9-tetrahydropyrano[3,4-b]indol-1-yl]acetic acid]: 6.13 and 6.40.
As for `CC[C@H](C)[C@]1(CC(=O)O)OCCc2c1[nH]c1c(C)ccc(C#N)c21` [Example 293, (1S,10S)-[5-cyano-8-methyl-1-(1-methylpropyl)-1,3,4,9-tetrahydropyrano[3,4-b]indol-1-yl]acetic acid], the pIC50 in experiment [1] and in experiment [2] was < 4.52 throughout.
Consider `CC[C@H](C)[C@]1(CC(=O)O)OCCc2c1[nH]c1c(Cl)ccc(C#N)c21` [Example 326, (1S,10S)-[8-Chloro-5-cyano-1-(1-methylpropyl)-1,3,4,9-tetrahydropyrano[3,4-b]indol-1-yl]acetic acid], for which the pIC50 in experiment [1] is 5.03; in experiment [2], 5.19.
Take `O=C(O)CC1(C2CCCCC2)OCCc2c1[nH]c1c(Cl)ccc(Cl)c21` (centres unmarked) [Example 255, (5,8-dichloro-1-cyclohexyl-1,3,4,9-tetrahydropyrano[3,4-b]indol-1-yl)acetic acid]: the figures for the pIC50 in experiment [1] and in experiment [2] were 4.82 and < 4.52, respectively.
The like results for `CCCC1(CC(=O)O)OCCc2c1[nH]c1c(C)ccc(C(F)(F)F)c21` (centres unmarked) [Example 272, (8-methyl-1-propyl-5-trifluoromethyl-1,3,4,9-tetrahydropyrano[3,4-b]indol-1-yl)acetic acid] were, in that order, 5.82 and 6.30.
The like results for `CC[C@@H](C)[C@@]1(C(=O)O)OCCc2c1[nH]c1c(F)ccc(C#N)c21` (relative stereo) [Example 349, (1R*,10R*)-[5-cyano-8-fluoro-1-(1-methylpropyl)-1,3,4,9-tetrahydropyrano[3,4-b]indol--1-yl]carboxylic acid] were, in that order, < 4.62 and 5.36.
The like results for `CCOCC1(CC(=O)O)OCCc2c1[nH]c1c(Cl)ccc(C(F)(F)F)c21` (centres unmarked) [Example 266, (8-chloro-1-ethoxymethyl-5-trifluoromethyl-1,3,4,9-tetrahydropyrano[3,4-b]indol-1-yl)acetic acid] were, in that order, 4.77 and 4.85.
Regarding `CCCCC1(C(=O)O)OCCc2c1[nH]c1c(F)ccc(C#N)c21` (centres unmarked) [Example 345, (1-butyl-5-cyano-8-fluoro-1,3,4,9-tetrahydropyrano[3,4-b]indol-1-yl)carboxylic acid], the pIC50 in experiment [1] was 5.21; in experiment [2], 5.47.
The matching figures for `CCCC1(C(=O)O)OCCc2c1[nH]c1ccc(Cl)c(Cl)c21` (centres unmarked) [Example 328, (5,6-dichloro-1-propyl-1,3,4,9-tetrahydropyrano[3,4-b]indol-1-yl)carboxylic acid]: 5.41 and 5.37.
As for `CSCC1(CC(=O)O)OCCc2c1[nH]c1c(Cl)ccc(Cl)c21` (centres unmarked) [Example 249, (5,8-dichloro-1-methylthiomethyl-1,3,4,9-tetrahydropyrano[3,4-b]indol-1-yl)acetic acid], the pIC50 is 4.92 in experiment [1] and 5.15 in experiment [2].
The matching figures for `O=C(O)CC1(CCC(F)(F)F)OCCc2c1[nH]c1c(Cl)ccc(C(F)(F)F)c21` (centres unmarked) [Example 263, [8-chloro-5-trifluoromethyl-1-(3,3,3-trifluoropropyl)-1,3,4,9-tetrahydropyrano[3,4-b]indol-1-yl]acetic acid]: 5.49 and 5.89.
The like results for `CCCC1(CC(=O)O)OCCc2c1[nH]c1c(C)ccc([N+](=O)[O-])c21` (centres unmarked) [Example 298, (8-methyl-5-nitro-1-propyl-1,3,4,9-tetrahydropyrano[3,4-b]indol-1-yl)acetic acid] were, in that order, 6.30 and 6.52.
